# Results taken from patent publication US20250163056A1, “NONMUSCLE MYOSIN II INHIBITORS” (The University of Florida Research Foundation, Inc., priority 2018, published 2025).
# How the values were obtained:
# Rabbit skeletal myosin = test: Skeletal muscle myosin II actin-activated ATPase assay; format: biochemical; conditions: 20 nM skeletal muscle myosin II; read-out: SKMMII KI
# Description: (§1) The cardiac muscle myosin II actin-activated ATPase assay is a biochemical assay. Specifically, it is an NADH (nicotinamide adenine dinucleotide)-coupled ATPase assay that relies on NADH fluorescence as a readout. Cardiac myosin is a mechanochemical energy transducer that hydrolyzes ATP to generate force in the presence of its activator, F-actin. The resulting ADP is regenerated to ATP by pyruvate kinase (PK) that transforms one molecule of phosphoenolpyruvate (PEP) to pyruvate in parallel. Subsequently, pyruvate is reduced to lactate by lactate dehydrogenase (LDH) that, in turn, oxidizes one molecule of NADH to NAD. Therefore, the decrease in NADH concentration as a function of time equals the ATP hydrolysis rate. Bovine cardiac myosin is obtained from a commercial source, Cytoskeleton. PK, LDH, ATP, PEP, and NADH are obtained from Sigma. F-actin is prepared in house from Rabbit Muscle Acetone Powder. The assay is run at 25° C. in 384 well black-wall polystyrene microplates with a total volume of 20 μl per well. NADH fluorescence is monitored for 30 minutes with an EnVision Multimode Plate Reader. The slope of the fluorescence response, which is proportional to the reaction rate, is determined by simple linear regression. Final assay conditions are 300 nM cardiac myosin, 10 μM actin, 40 U/ml LDH, 200 U/ml PK, 220 μM NADH, 1 mM PEP, 1 mM ATP in a buffer containing 10 mM 3-(N-morpholino)propanesulfonic acid (pH=7.0), 2 mM MgCl2, 0.15 mM ethylene glycol-bis(p-aminoethyl ether)-N,N,N′,N′-tetraacetic acid, 0.1 mg/mL bovine serum albumin, 0.5% (V/V) dimethyl sulfoxide (DMSO) and 1 mM dithiothreitol. Prior to testing the inhibitory activity of the compounds, a two-fold dilution series starting at 10 mM compound concentration is prepared in DMSO. Subsequently, 100 nl is transferred to each well of the measuring plate containing a mixture of myosin, LDH and PK. The enzymatic reaction is started with the addition of a mixture containing ATP, PEP, NADH and actin. The highest final compound concentration is 50 uM. 20 μM para-aminoblebbistatin in 0.5% DMSO serves as the positive control and 0.5% DMSO alone is the negative control. Reaction rates are determined by using the fluorescence responses of a dilution series of NADH included in all plates and plotted as a function of inhibitor concentration. All measurements are carried out in triplicate. Inhibitory constants are determined by fitting the 16 point dose-response data to a quadratic equation corresponding to a simple one-to-one binding model.
# The skeletal muscle myosin II actin-activated ATPase assay is performed the same as for cardiac muscle myosin II with the following exceptions: Rabbit skeletal myosin is obtained from Cytoskeleton and the final assay conditions contain 20 nM skeletal muscle myosin II.
# [1] = Photostability, percentage remaining undegraded under illumination or in the dark; conditions: for Photostability 4 hours: percentage remaining undegraded after 4 hours illumination; for Photostability 24 hours: percentage remaining undegraded after 24 hours illumination; for Photostability Dark (24 h): percentage remaining undegraded in the dark
# Bovine cardiac myosin = Bovine cardiac myosin (Bos taurus (Bovine), UniProt Q9BE39); test: Cardiac muscle myosin II actin-activated ATPase assay (NADH-coupled); format: biochemical; set-up: key to Ratio CMMII:NMII Ki/EC50: NMII-sel: no Ki value for cardiac myosin II could be determined; the compounds had no detectable inhibitory properties versus the cardiac myosin II; conditions: for Ki: 300 nM cardiac myosin, 10 μM actin, 25° C., read-out: CMMII KI; for Ratio CMMII:NMII Ki/EC50: cardiac myosin II Ki over nonmuscle myosin II EC50
# Sequence of Bovine cardiac myosin (Q9BE39 whole entry): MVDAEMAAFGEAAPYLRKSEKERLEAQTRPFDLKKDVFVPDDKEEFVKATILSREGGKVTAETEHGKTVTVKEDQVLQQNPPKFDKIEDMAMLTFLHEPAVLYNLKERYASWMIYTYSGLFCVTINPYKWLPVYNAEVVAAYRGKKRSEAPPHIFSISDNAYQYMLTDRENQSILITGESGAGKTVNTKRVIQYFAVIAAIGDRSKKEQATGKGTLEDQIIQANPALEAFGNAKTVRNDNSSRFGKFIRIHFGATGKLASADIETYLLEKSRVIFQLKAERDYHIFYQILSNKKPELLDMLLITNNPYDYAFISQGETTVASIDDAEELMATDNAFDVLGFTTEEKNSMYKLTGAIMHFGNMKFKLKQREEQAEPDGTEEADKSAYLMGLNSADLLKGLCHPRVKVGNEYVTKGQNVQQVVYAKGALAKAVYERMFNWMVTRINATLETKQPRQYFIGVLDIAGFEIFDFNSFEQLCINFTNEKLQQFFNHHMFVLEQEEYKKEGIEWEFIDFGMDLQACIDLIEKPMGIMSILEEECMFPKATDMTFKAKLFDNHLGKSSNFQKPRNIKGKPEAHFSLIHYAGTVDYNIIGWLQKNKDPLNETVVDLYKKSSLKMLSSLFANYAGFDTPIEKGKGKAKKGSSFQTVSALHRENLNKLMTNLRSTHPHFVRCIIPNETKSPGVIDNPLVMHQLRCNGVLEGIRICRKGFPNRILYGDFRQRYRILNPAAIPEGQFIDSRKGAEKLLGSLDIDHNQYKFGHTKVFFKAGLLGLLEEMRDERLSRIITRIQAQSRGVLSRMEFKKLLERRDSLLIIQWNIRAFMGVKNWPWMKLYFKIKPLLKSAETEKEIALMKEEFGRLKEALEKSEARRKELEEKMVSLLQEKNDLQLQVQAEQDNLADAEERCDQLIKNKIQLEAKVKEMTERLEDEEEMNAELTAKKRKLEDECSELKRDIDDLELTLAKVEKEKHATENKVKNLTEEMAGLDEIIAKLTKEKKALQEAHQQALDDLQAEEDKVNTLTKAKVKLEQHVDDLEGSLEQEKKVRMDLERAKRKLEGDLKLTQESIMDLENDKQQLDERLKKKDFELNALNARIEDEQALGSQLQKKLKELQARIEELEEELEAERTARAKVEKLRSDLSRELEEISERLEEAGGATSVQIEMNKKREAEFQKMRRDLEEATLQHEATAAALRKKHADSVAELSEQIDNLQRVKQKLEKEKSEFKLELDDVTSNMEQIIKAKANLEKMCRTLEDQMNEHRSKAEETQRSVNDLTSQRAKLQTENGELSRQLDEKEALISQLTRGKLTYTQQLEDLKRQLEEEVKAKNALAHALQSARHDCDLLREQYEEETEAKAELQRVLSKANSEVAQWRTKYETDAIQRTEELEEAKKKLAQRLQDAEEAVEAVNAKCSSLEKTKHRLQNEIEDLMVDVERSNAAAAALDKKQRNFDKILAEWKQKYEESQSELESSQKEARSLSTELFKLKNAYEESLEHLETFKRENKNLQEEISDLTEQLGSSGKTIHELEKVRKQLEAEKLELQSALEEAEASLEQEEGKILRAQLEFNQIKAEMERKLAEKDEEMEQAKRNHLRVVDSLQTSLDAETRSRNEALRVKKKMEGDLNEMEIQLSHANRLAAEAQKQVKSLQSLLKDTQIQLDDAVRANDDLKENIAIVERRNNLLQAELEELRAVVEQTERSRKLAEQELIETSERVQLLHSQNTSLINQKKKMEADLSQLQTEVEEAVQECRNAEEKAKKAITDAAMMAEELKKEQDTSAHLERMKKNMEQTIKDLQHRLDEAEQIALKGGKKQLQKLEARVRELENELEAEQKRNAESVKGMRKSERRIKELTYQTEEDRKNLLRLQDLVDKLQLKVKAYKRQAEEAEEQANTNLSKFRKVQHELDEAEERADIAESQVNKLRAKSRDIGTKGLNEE
# Sequence of Bovine cardiac myosin (P85100 whole entry partner): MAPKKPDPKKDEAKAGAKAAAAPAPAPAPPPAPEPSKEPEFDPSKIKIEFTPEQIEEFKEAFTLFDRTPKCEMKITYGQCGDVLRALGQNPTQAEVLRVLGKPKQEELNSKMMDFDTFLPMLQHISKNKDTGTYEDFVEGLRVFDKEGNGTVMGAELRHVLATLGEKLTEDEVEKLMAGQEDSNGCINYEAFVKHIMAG
# Sequence of Bovine cardiac myosin (Q3SZE5 whole entry partner): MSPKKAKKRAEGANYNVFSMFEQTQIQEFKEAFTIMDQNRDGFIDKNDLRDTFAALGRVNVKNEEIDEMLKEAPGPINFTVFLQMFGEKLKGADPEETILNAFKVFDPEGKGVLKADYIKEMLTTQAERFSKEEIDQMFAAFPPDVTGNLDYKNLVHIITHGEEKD
# Description: as §1
structure (smiles),measurement,setting,value
COc1cccc(N2CC[C@@]3(O)C(=O)c4cc(C)ccc4N=C23)c1 [BPN-0025044],Ki,Rabbit skeletal myosin,7 µM
same,Photostability 4 hours,[1],90.3%
same,Photostability 24 hours,[1],12.1%
same,Photostability Dark (24 h),[1],>99%
same,Ki,Bovine cardiac myosin,28 µM
same,Ratio CMMII:NMII Ki/EC50,Bovine cardiac myosin,5.4
O=C1c2cc(C(F)(F)F)ccc2N=C2N(c3ccccc3)CC[C@@]12O [BPN-0025110],Ki,Rabbit skeletal myosin,8 µM
same,Photostability 4 hours,[1],6.6%
same,Photostability 24 hours,[1],2.6%
same,Photostability Dark (24 h),[1],>99%
same,Ki,Bovine cardiac myosin,22 µM
same,Ratio CMMII:NMII Ki/EC50,Bovine cardiac myosin,6.9
Cc1ccc2c(c1)C(=O)[C@]1(O)CCN(c3cccc(Br)c3)C1=N2 [BPN-0025240],Ki,Rabbit skeletal myosin,35 µM
same,Photostability 4 hours,[1],93.0%
same,Photostability 24 hours,[1],28.6%
same,Photostability Dark (24 h),[1],94.7%
same,Ki,Bovine cardiac myosin,400 µM
same,Ratio CMMII:NMII Ki/EC50,Bovine cardiac myosin,39.2
COc1cc(N2CC[C@@]3(O)C(=O)c4cc(C)ccc4N=C23)ccn1 [BPN-0025919],Ki,Rabbit skeletal myosin,1.8 µM
same,Ki,Bovine cardiac myosin,18 µM
same,Ratio CMMII:NMII Ki/EC50,Bovine cardiac myosin,4.6
Cc1ccc2c(c1)C(=O)[C@@]1(O)C(=N2)N(c2ccccc2)CC1(C)C [BPN-0026282],Photostability 4 hours,[1],64.0%
same,Photostability 24 hours,[1],7.0%
same,Photostability Dark (24 h),[1],>99%
same,Ratio CMMII:NMII Ki/EC50,Bovine cardiac myosin,NMII-sel
Cc1ncc(N2CC[C@@]3(O)C(=O)c4cc(C(F)(F)F)ccc4N=C23)s1 [BPN-0026404],Ki,Rabbit skeletal myosin,3.6 µM
same,Ki,Bovine cardiac myosin,23 µM
same,Ratio CMMII:NMII Ki/EC50,Bovine cardiac myosin,7.0
Cc1cc2c(cc1F)C(=O)[C@]1(O)CCN(c3ccc(C)c(Cl)c3)C1=N2 [BPN-0026606],Photostability 4 hours,[1],85.9%
same,Photostability 24 hours,[1],4.1%
same,Photostability Dark (24 h),[1],95.5%
same,Ratio CMMII:NMII Ki/EC50,Bovine cardiac myosin,NMII-sel
Cc1ccc(N2CC[C@@]3(O)C(=O)c4cc(Cl)ccc4N=C23)cc1 [BPN-0026609],Ki,Rabbit skeletal myosin,0.43 µM
same,Ki,Bovine cardiac myosin,5.5 µM
same,Ratio CMMII:NMII Ki/EC50,Bovine cardiac myosin,3.7
Cc1ccc(N2CC[C@@]3(O)C(=O)c4cc(C)c(C(F)(F)F)cc4N=C23)cc1Cl [BPN-0026786],Photostability 4 hours,[1],87.8%
same,Photostability 24 hours,[1],66.6%
same,Photostability Dark (24 h),[1],96.0%
same,Ratio CMMII:NMII Ki/EC50,Bovine cardiac myosin,NMII-sel
Cc1cccc(N2CC[C@@]3(O)C(=O)c4cc(C)c(C(F)(F)F)cc4N=C23)c1 [BPN-0026847],Photostability 4 hours,[1],99.0%
same,Photostability 24 hours,[1],91.8%
same,Photostability Dark (24 h),[1],>99%
same,Ratio CMMII:NMII Ki/EC50,Bovine cardiac myosin,NMII-sel
Cc1sc2c(c1C)C(=O)[C@]1(O)CCN(c3cccc(Br)c3)C1=N2 [BPN-0026853],Photostability 4 hours,[1],91.2%
same,Photostability 24 hours,[1],88.2%
same,Photostability Dark (24 h),[1],90.2%
same,Ratio CMMII:NMII Ki/EC50,Bovine cardiac myosin,NMII-sel
O=C1c2cc(C(F)(F)F)ccc2N=C2N(c3ccc4ncsc4c3)CC[C@@]12O [BPN-0027219],Photostability 4 hours,[1],46.2%
same,Photostability 24 hours,[1],3.8%
same,Photostability Dark (24 h),[1],98.3%
same,Ratio CMMII:NMII Ki/EC50,Bovine cardiac myosin,NMII-sel
O=C1c2c(sc3c2CCCC3)N=C2N(c3ccc4ncccc4c3)CC[C@@]12O [BPN-0027240],Photostability 4 hours,[1],94.1%
same,Photostability 24 hours,[1],74.6%
same,Photostability Dark (24 h),[1],98.0%
same,Ratio CMMII:NMII Ki/EC50,Bovine cardiac myosin,NMII-sel
